# From patent publication US20230382909A1, “BICYCLIC COMPOUNDS” (Aligos Therapeutics, Inc., priority 2022, published 2023)
# Structures can show the parent of a compound that is named as a salt.
# Legend:
# [1] = Cell viability by CellTiter-Glo 2.0 (intracellular ATP content) in HepG2.117 cells; assay type: cell-based; conditions: human, CellTiter-Glo 2.0, 3 days incubation
# Description: (§1) The following assay procedure describes the HBV antiviral assay, using HepG2.117 cells, which carry a stably integrated genotype D HBV genome under the control of a Tet-off promoter, and intracellular HBV DNA quantification as endpoint. Cell viability is assessed in parallel by measuring the intracellular ATP content using CellTiter-Glo 2.0 (Promega).
# (§2) On day 1, medium is removed from each well, the test articles are diluted in culture medium without doxcycyline and 100 μL was added to cell culture wells (9 concentrations, 4-fold dilution). For each plate, 6 untreated (merely DMSO) wells are included. The final concentration of DMSO in the culture medium is 2%. Each plate is prepared in duplicate (one for HBV DNA extraction, one for CellTiter-Glo 2.0 measurement). The cells are incubated at 37° C. and 5% CO2 for 3 days.
# (§3) On day 4, cell viability is assessed using CellTiter-Glo 2.0 and cell lysates are prepared for HBV DNA extraction and subsequent quantification by qPCR.
# Using the other plates, the cell viability is quantified by CellTiter-Glo 2.0 according to the manufacturer's manual. In brief, 100 μL of reagent solution is added to the culture plates and shaken for 2′. The plates are incubated at rt for 10 min and luminescence signal is subsequently measured on a VarioSkan Lux (ThermoFisher) plate reader.
# (§4) Cell viability is calculated as follows: % Cell viability=(luminescence value of test sample)/(average luminescence value of 2% DMSO control)×100%. HBV DNA inhibition was calculated as follows: 100−(HBV DNA copy number of test sample)/(average HBV DNA copy number of 2% DMSO control)×100%. No normalization to entecavir is required due to the excellent dynamic window of this assay. The CC50, EC50 and EC9o values were determined by dose-response curves fitted using non-linear regression.
# [2] = tested on: HBV; assay: HBV-DNA antiviral assay using HepG2.117 cells; assay type: cell-based, HBV genotype D; conditions: Hepatitis B virus, HepG2.117, 72 h
# Description: as §1
# On day 0, HepG2.117 cells (which are maintained in routine cell culture with doxycycline present in the medium at a final concentration of 1 μg/mL) are seeded in 96-well plates (white with clear bottom) at a density of 2.0×10^4 cells/well (0.1 mL/well) in medium without doxycycline to induce pgRNA transcription and subsequent formation of HBV particles. The cells are incubated at 37° C. and 5% CO2.
# as §2, §3
# HBV DNA Quantification by qPCR
# Medium is removed from each well and 100 μL of 0.33% NP-40 in H2O was added to each well. Plates are sealed, incubated at 4° C. for 5 mins, vortexed extensively and centrifuged briefly. Next, 35 μL of lysate is added to 65 μL QuickExtract DNA Extraction Solution (Epicentre) in a PCR plate for each well. PCR plate is incubated at 65° C. for 6 mins, 98° C. for 2 mins and finally cooled to 4° C. HBV DNA is then quantified by qPCR with HBV-specific primers and probes as specified in Table 3 using the Bio-Rad SSOAdvanced Universal Probes Supermix on a CFX96 machine (Bio-Rad). The PCR cycle program consisted of 95° C. for 3 mins, followed by 40 cycles at 95° C. for 10 sec and 60° C. for 30 sec.
# A DNA standard is prepared by dilution of an IDT gBlock corresponding to the amplicon with concentrations ranging from 10^2 to 10^8 copies/input (i.e., per 4 μL) and used to generate a standard curve by plotting Cq values vs. HBV DNA standard concentration. The quantity of HBV DNA in each sample is determined by interpolating from the standard curve.
# as §4
Compound,CC50 at 3 days [1] [µM],EC50 [2] [µM]
"Cc1cc(C)n(-c2nc3c(c(=O)n2-c2ccc4c(c2)ncn4C)C[C@@H](C)N(C(=O)c2ccc(Br)c(C(F)(F)F)c2)C3)n1 [Compound 1, (R)-7-(4-bromo-3-(trifluoromethyl)benzoyl)-2-(3,5-dimethyl-1H-pyrazol-1-yl)-6-methyl-3-(1-methyl-1H-benzo[d]imidazol-5-yl)-5,6,7,8-tetrahydropyrido[3,4-d]pyrimidin-4(3H)-one]",> 0.5,< 0.05
"CNC(=O)c1ccc(-n2c(-n3nc(C)cc3C)nc3c(c2=O)C[C@@H](C)N(C(=O)c2ccc(Br)c(C(F)(F)F)c2)C3)cc1Cl [Compound 2, (R)-4-(7-(4-bromo-3-(trifluoromethyl)benzoyl)-2-(3,5-dimethyl-1H-pyrazol-1-yl)-6-methyl-4-oxo-5,6,7,8-tetrahydropyrido[3,4-d]pyrimidin-3(4H)-yl)-2-chloro-N-methylbenzamide]",> 0.5,< 0.05
"Cc1cc(C)n(-c2nc3c(c(=O)n2-c2ccc4c(ncn4C)n2)C[C@@H](C)N(C(=O)c2ccc(Br)c(C(F)(F)F)c2)C3)n1 [Compound 3, (R)-7-(4-bromo-3-(trifluoromethyl)benzoyl)-2-(3,5-dimethyl-1H-pyrazol-1-yl)-6-methyl-3-(1-methyl-1H-imidazo[4,5-b]pyridin-5-yl)-5,6,7,8-tetrahydropyrido[3,4-d]pyrimidin-4(3H)-one]",> 0.5,< 0.05
"Cc1cc(C)n(-c2nc3c(c(=O)n2-c2ccc(O)cc2)C[C@@H](C)N(C(=O)c2ccc(Br)c(C(F)(F)F)c2)C3)n1 [Compound 4, (R)-7-(4-bromo-3-(trifluoromethyl)benzoyl)-2-(3,5-dimethyl-1H-pyrazol-1-yl)-3-(4-hydroxyphenyl)-6-methyl-5,6,7,8-tetrahydropyrido[3,4-d]pyrimidin-4(3H)-one]",> 0.5,< 0.05
"Cc1cc(C)n(-c2nc3c(c(=O)n2-c2ccc(OCC(N)=O)cc2)C[C@@H](C)N(C(=O)c2ccc(Br)c(C(F)(F)F)c2)C3)n1 [Compound 5, (R)-2-(4-(7-(4-bromo-3-(trifluoromethyl)benzoyl)-2-(3,5-dimethyl-1H-pyrazol-1-yl)-6-methyl-4-oxo-5,6,7,8-tetrahydropyrido[3,4-d]pyrimidin-3(4H)-yl)phenoxy)acetamide]",> 0.5,< 0.05
"Cc1cc(C)n(-c2nc3c(c(=O)n2-c2ccc(OC[C@@H](O)CO)cc2)C[C@@H](C)N(C(=O)c2ccc(Br)c(C(F)(F)F)c2)C3)n1 [Compound 6, (R)-7-(4-bromo-3-(trifluoromethyl)benzoyl)-3-(4-((S)-2,3-dihydroxypropoxy)phenyl)-2-(3,5-dimethyl-1H-pyrazol-1-yl)-6-methyl-5,6,7,8-tetrahydropyrido[3,4-d]pyrimidin-4(3H)-one]",> 0.5,0.05 to 0.5
"Cc1cc(C)n(-c2nc3c(c(=O)n2-c2ccc(OC[C@H](O)CO)cc2)C[C@@H](C)N(C(=O)c2ccc(Br)c(C(F)(F)F)c2)C3)n1 [Compound 7, (R)-7-(4-bromo-3-(trifluoromethyl)benzoyl)-3-(4-((R)-2,3-dihydroxypropoxy)phenyl)-2-(3,5-dimethyl-1H-pyrazol-1-yl)-6-methyl-5,6,7,8-tetrahydropyrido[3,4-d]pyrimidin-4(3H)-one]",> 0.5,< 0.05
"Cc1cc(C)n(-c2nc3c(c(=O)n2-c2ccc(NC[C@@H](C)O)nc2)C[C@@H](C)N(C(=O)c2ccc(Br)c(C(F)(F)F)c2)C3)n1 [Compound 8, (R)-7-(4-bromo-3-(trifluoromethyl)benzoyl)-2-(3,5-dimethyl-1H-pyrazol-1-yl)-3-(6-(((R)-2-hydroxypropyl)amino)pyridin-3-yl)-6-methyl-5,6,7,8-tetrahydropyrido[3,4-d]pyrimidin-4(3H)-one]",> 0.5,< 0.05
"Cc1cc(C)n(-c2nc3c(c(=O)n2-c2ccc(N4CC[C@@H](O)C4)nc2)C[C@@H](C)N(C(=O)c2ccc(Br)c(C(F)(F)F)c2)C3)n1 [Compound 9, (R)-7-(4-bromo-3-(trifluoromethyl)benzoyl)-2-(3,5-dimethyl-1H-pyrazol-1-yl)-3-(6-((R)-3-hydroxypyrrolidin-1-yl)pyridin-3-yl)-6-methyl-5,6,7,8-tetrahydropyrido[3,4-d]pyrimidin-4(3H)-one]",> 0.5,< 0.05
"Cc1cc(C)n(-c2nc3c(c(=O)n2-c2ccc(N4CCNCC4)nc2)C[C@@H](C)N(C(=O)c2ccc(Br)c(C(F)(F)F)c2)C3)n1 [Compound 10, (R)-7-(4-bromo-3-(trifluoromethyl)benzoyl)-2-(3,5-dimethyl-1H-pyrazol-1-yl)-6-methyl-3-(6-(piperazin-1-yl)pyridin-3-yl)-5,6,7,8-tetrahydropyrido[3,4-d]pyrimidin-4(3H)-one hydrochloride]",> 0.5,< 0.05
"Cc1cc(C)n(-c2nc3c(c(=O)n2-c2ccc(N4CCN(C)CC4)nc2)C[C@@H](C)N(C(=O)c2ccc(Br)c(C(F)(F)F)c2)C3)n1 [Compound 11, (R)-7-(4-bromo-3-(trifluoromethyl)benzoyl)-2-(3,5-dimethyl-1H-pyrazol-1-yl)-6-methyl-3-(6-(4-methylpiperazin-1-yl)pyridin-3-yl)-5,6,7,8-tetrahydropyrido[3,4-d]pyrimidin-4(3H)-one]",> 0.5,< 0.05
"Cc1cc(C)n(-c2nc3c(c(=O)n2-c2ccc(OC[C@H](C)OP(=O)(O)O)cc2)C[C@@H](C)N(C(=O)c2ccc(Br)c(C(F)(F)F)c2)C3)n1 [Compound 12, (S)-1-(4-((R)-7-(4-bromo-3-(trifluoromethyl)benzoyl)-2-(3,5-dimethyl-1H-pyrazol-1-yl)-6-methyl-4-oxo-5,6,7,8-tetrahydropyrido[3,4-d]pyrimidin-3(4H)-yl)phenoxy)propan-2-yl dihydrogen phosphate]",> 0.5,0.05 to 0.5
"Cc1cc(C)n(-c2nc3c(c(=O)n2-c2ccc4c(cnn4C)c2)C[C@@H](C)N(C(=O)c2ccc(Br)c(C(F)(F)F)c2)C3)n1 [Compound 13, (6R)-7-[4-bromo-3-(trifluoromethyl)benzoyl]-2-(3,5-dimethylpyrazol-1-yl)-6-methyl-3-(1-methylindazol-5-yl)-6,8-dihydro-5H-pyrido[3,4-d]pyrimidin-4-one]",> 0.5,< 0.05
"Cc1cc(C)n(-c2nc3c(c(=O)n2-c2ccc(OC[C@@H](C)O)cc2)C[C@@H](C)N(C(=O)c2ccc(Br)c(C(F)(F)F)c2)C3)n1 [Compound 14, (6R)-7-[4-bromo-3-(trifluoromethyl)benzoyl]-2-(3,5-dimethylpyrazol-1-yl)-3-[4-[(2R)-2-hydroxypropoxy]phenyl]-6-methyl-6,8-dihydro-5H-pyrido[3,4-d]pyrimidin-4-one]",> 0.5,< 0.05
"Cc1cc(C)n(-c2nc3c(c(=O)n2-c2ccc(OC[C@H](C)O)cc2)C[C@@H](C)N(C(=O)c2ccc(Br)c(C(F)(F)F)c2)C3)n1 [Compound 15, (6R)-7-[4-bromo-3-(trifluoromethyl)benzoyl]-2-(3,5-dimethylpyrazol-1-yl)-3-[4-[(2S)-2-hydroxypropoxy]phenyl]-6-methyl-6,8-dihydro-5H-pyrido[3,4-d]pyrimidin-4-one]",> 0.5,< 0.05
